What was measured:
SpCas9:gRNA complex = target: T1, SpCas9:gRNA complex (Streptococcus pyogenes serotype M1, UniProt Q99ZW2); assay: Bio-layer interferometry (BLI), compound-SpCas9 interaction; assay type: binding, S. pyogenes; conditions: 1 μM biotinylated compound on streptavidin sensors, SpCas9:gRNA 0.15-1 μM; read-out: dissociation constant
T1 construct: made in house; host or cells: E. coli Rosetta (DE3)
Protocol: Compound-SpCas9 interaction in BLI. The experiments were performed in a 96-well format with 180 μL reaction volume using […] and streptavidin sensors. 1 μM of the biotinylated compound was loaded onto the sensors for 180 s in 20 mM Tris buffer (100 mM KCl, 5 mM MgCl2, 1 mM DTT, 0.01% Tween, pH 7.4). Compound-loaded sensors were then allowed to associate with different concentrations of the SpCas9:gRNA complex (0.15-1 μM) for 300 s, followed by dissociation in reaction buffer. The reference sensor was loaded with compound and allowed to associate and dissociate in reaction buffer alone. Response curves were fitted with a 2:1 stoichiometric model and a global fit steady-state analysis was performed using manufacturer's protocol. Experiments were performed in triplicate.
Competition experiments were performed using biotin-linker fragment. In this experiment, streptavidin sensors were pre-incubated with 10 μM of biotin-linker for 10 min before dipping into a solution of either 1 μM BRD7087-biotin or reaction buffer alone. Sensors were then allowed to associate with different concentration of SpCas9:gRNA complex (0.15-1 μM) or buffer alone.

SpCas9 = SpCas9 (Streptococcus pyogenes serotype M1, UniProt Q99ZW2); assay: In vitro pulldown from WM793-SpCas9 cell lysate; assay type: binding, S. pyogenes; design: host or cells: U2OS.eGFP.PEST; conditions: streptavidin magnetic beads, 12 h
Chain of SpCas9 (Q99ZW2 whole entry): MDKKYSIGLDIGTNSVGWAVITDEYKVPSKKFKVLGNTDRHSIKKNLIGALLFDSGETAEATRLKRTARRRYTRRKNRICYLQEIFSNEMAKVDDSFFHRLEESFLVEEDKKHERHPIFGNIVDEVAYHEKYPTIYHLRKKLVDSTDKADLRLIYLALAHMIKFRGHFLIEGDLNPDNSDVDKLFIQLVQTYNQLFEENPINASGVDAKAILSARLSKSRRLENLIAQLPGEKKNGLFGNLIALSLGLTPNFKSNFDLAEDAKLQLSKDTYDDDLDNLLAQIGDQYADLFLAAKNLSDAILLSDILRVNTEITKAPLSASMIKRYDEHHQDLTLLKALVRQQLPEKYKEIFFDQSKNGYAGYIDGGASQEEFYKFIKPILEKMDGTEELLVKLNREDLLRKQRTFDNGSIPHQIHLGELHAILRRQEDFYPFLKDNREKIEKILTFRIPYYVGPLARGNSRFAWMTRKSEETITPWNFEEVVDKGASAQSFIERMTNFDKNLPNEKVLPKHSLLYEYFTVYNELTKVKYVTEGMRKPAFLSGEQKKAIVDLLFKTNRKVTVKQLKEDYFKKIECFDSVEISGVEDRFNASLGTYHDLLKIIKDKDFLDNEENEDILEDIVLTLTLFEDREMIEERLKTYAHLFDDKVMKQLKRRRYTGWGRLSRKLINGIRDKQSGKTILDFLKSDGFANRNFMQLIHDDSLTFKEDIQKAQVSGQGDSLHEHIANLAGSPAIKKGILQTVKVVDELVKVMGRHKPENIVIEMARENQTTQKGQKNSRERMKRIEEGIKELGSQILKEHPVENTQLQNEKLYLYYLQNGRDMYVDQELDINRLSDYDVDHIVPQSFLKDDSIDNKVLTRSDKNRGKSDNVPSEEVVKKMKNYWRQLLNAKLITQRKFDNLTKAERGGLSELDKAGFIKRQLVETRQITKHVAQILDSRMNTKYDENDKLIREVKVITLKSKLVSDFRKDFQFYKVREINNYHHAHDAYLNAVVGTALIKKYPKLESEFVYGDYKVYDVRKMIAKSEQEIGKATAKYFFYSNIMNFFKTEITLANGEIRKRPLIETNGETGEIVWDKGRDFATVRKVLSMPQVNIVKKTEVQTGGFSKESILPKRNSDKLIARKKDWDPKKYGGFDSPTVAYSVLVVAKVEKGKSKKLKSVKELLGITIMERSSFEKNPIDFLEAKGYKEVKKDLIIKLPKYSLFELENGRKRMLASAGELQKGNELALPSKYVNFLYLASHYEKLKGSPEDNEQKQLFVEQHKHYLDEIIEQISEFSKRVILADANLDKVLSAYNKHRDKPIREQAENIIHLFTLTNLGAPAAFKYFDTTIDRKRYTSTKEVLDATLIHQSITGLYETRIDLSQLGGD

T1 sequence (Q99ZW2 whole entry, one chain of several): as the sequence (Q99ZW2 whole entry) above

In the case of O=C(CCCC[C@@H]1SC[C@@H]2NC(=O)N[C@@H]21)NCCOCCOCCOCCC(=O)Nc1cccc(-c2ccc3c(c2)[C@H]2[C@H](CCN2Cc2ccncc2)[C@@H](CO)N3)c1 [BRD3539, N-(2-(2-(2-(3-((3-((3aR,4S,9bR)-4-(Hydroxymethyl)-1-(pyridin-4-ylmethyl)-2,3,3a,4,5,9b-hexahydro-1H-pyrrolo[3,2-c]quinolin-8-yl)phenyl)amino)-3-oxopropoxy)ethoxy)ethoxy)ethyl)-5-((3aS,4S,6aR)-2-oxohexahydro-1H-thieno[3,4-d]imidazol-4-yl) pentanamide], the Kd (SpCas9:gRNA complex) is reported as 700 nM.
In the case of Cc1ccc(S(=O)(=O)N2CC[C@@H]3[C@H](CNC(=O)CCOCCOCCOCCNC(=O)CCCC[C@@H]4SC[C@@H]5NC(=O)N[C@@H]54)Nc4ccc(-c5ccccc5F)cc4[C@@H]32)cc1 [biotinylated BRD0539, N-(1-((3aR,4R,9bR)-8-(2-fluorophenyl)-1-tosyl-2,3,3a,4,5,9b-hexahydro-1H-pyrrolo[3,2-c]quinolin-4-yl)-3-oxo-6,9,12-trioxa-2-azatetradecan-14-yl)-5-((3aS,4S,6aR)-2-oxohexahydro-1H-thieno[3,4-d]imidazol-4-yl) pentanamide], the “pulldown of SpCas9 from WM793-SpCas9 cell lysate” value (SpCas9) is reported as “able to pulldown SpCas9”.
